Each structure is given as a SMILES string. Where a SMILES comes first, the peptide text is derived from it. Bridges are numbered along the chain shown (N, C = ends).

Here are results for 1 molecule from patent EP0232650B1, “Analogues of hypocalcemic polypeptide compounds preserving the calcium content of the body, their manufacture, their use as medicaments and the compositions thereof” (MILHAUD, Gérard, priority 1985, dated 1989).

This assay can be described thus: Hypocalcemic activity in the fasted male rat (fall in calcemia one hour after intravenous injection, compared with Research Standard B). Type of assay: in vivo. The settings on record: male rat 100-120 g, fasted 16 hours, peptide diluted in sodium acetate buffer 0,1 N pH 6 with 0,1 % albumin, versus "Research Standard B". An excerpt: Elle est déterminée chez le rat mâle pesant de 100 à 120 g et soumis à un jeûne de 16 heures. L'activité est exprimée en unité MRC à partir de la baisse de la calcémie, mesurée une heure après l'injection intraveineuse de peptide à tester convenablement dilué en tampon acétate de sodium 0,1 N pH 6 et 0,1 % d'albumine, par comparaison avec l'activité du "Research Standard B" convenablement dilué. L'activité biologique du peptide de l'exemple 1 est supérieure à 4000 unités MRC par mg et celle du peptide de l'exemple 2 est supérieure à 4500 unités MRC par mg.

Consider `CC(C)C[C@H](NC(=O)[C@H](CCCCN)NC(=O)CNC(=O)[C@H](CC(C)C)NC(=O)[C@@H](NC(=O)[C@@H]1CSSC[C@H](N)C(=O)N[C@@H](CC(N)=O)C(=O)N[C@@H](CO)C(=O)N[C@@H](CC(C)C)C(=O)N[C@@H](CO)C(=O)N[C@@H]([C@@H](C)O)C(=O)N1)C(C)C)C(=O)N[C@@H](CO)C(=O)N[C@@H](CCC(N)=O)C(=O)N[C@@H](CCC(=O)O)C(=O)N[C@@H](CC(C)C)C(=O)N[C@@H](Cc1c[nH]cn1)C(=O)N[C@@H](CCCCN)C(=O)N[C@@H](CC(C)C)C(=O)N[C@@H](CCC(N)=O)C(=O)N[C@H](C(=O)N[C@@H](Cc1ccc(O)cc1)C(=O)N1CCC[C@H]1C(=O)N[C@@H](CCCNC(=N)N)C(=O)N[C@H](C(=O)N[C@@H](CC(=O)O)C(=O)N[C@H](C(=O)NCC(=O)N[C@@H](C)C(=O)NCC(=O)N[C@H](C(=O)N1CCC[C@H]1C(N)=O)[C@@H](C)O)C(C)C)[C@@H](C)O)[C@@H](C)O` [exemple 1, Cys - Asn - Ser - Leu - Sers - Thr - Cys - Val - Leu - Glyio - Lys - Leu - Ser - Gin - Glu1s - Leu - His - Lys - Leu - Gln20- Thr - Tyr - Pro - Arg - Thr25- Asp - Val - Gly - Ala - Gly30 - Thr - Proamide] (H-CNSLSTCVLGKLSQELHKLQTYPRTDVGAGTP-NH2; disulfide 1-7), for which the activité biologique was more than 4000 unités MRC par mg.
